According to publication PMC9656319, “Pharmacokinetics and Tissue Distribution of Coumarins from Tagetes lucida in an LPS-Induced Neuroinflammation Model” (Plants, 2022):

Columns and labels:
[1] = Stability of the analytes in spiked plasma, brain, kidney and spleen matrices (autosampler, long-term, freeze-thaw); format: physicochemical, mice; details: for Stability Autosampler RE (%): processed samples in autosampler vials 24 h room temperature; for Stability Freeze-Thaw RE (%): three cycles (−4 °C to 25 °C); for Stability Long-Term RE (%): −70 °C for 30 days
Procedure: The stability of the compounds obtained from each enriched matrices at the QC concentrations was evaluated under different conditions that covered the processing, handling, and storage phases that could be developed throughout the study.
Individual stock solutions of PE, SC, DF, HR, PU, and rutin (IS) were prepared separately in methanol (1 mg/mL) and stored at −4 °C until use. From the stocks, a working solution in methanol was prepared at a concentration of 200 µg/mL of each coumarin. Blank plasma or organs supernatant samples (80 µL) were spiked with 20 µL of serial dilutions of working solution to obtain calibration curves ranging between 0.156, 0.312, 0.625, 1.25, 2.5, 5, 10, 20, and 40 µg/mL of each coumarin. Quality control (QC) samples were prepared at three levels of 0.3 (low), 3 (medium), and 30 (high) µg/mL for each coumarin.
The stability of the analytes in plasma, brain, kidneys, and spleen was evaluated by the analyzed concentrations of QC subjected to three different conditions. Short-term stability was determined by analysis of samples processed in the autosampler vials at 24 h at room temperature. Long-term stability was tested on samples stored at −70 °C for 30 days. Freeze-thaw stability was determined after three cycles (−4 °C to 25 °C) on three consecutive days.

[2] = Pharmacokinetic study in plasma after oral hexanic extract of Tagetes lucida, healthy and LPS-damaged mice; format: in vivo, ICR mice; details: for amount of drug available in the plasma, LPS mice compared to healthy subjects / Cmax / AUC(0-inf) / MRT / Tmax / half-life / AUC(0-t) / Cl/F: 10 mg/kg oral hexanic extract; for amount of drug available in the plasma, LPS mice compared to healthy subjects: concentration-time profiles (Figure 3); for Cmax / AUC(0-inf) / MRT / Tmax / half-life / AUC(0-t): ICR, mouse, po, 10 mg/kg; for Cmax: non-compartmental; for Cmax / AUC(0-inf) / MRT / Tmax / half-life / AUC(0-t) / Cl/F: mean ± SEM (n = 5); for AUC(0-t): to 6 h
Procedure: The optimized HPLC-validated method for the quantification of coumarins present in the hexane extract of T. lucida was used to evaluate the concentration profiles over time in the plasma, brain, kidney, and spleen biological matrices after an oral administration of 10 mg/kg of the extract.
Blood samples were obtained from the retro-orbital sinus of mice and collected in heparinized tubes. Plasma was separated by centrifugation at 3500 rpm for 5 min and stored in new Eppendorf tubes at −70 °C, until further processing.
One hundred microliters of plasma and organs samples, spiked with calibration and QC concentration or samples from the pharmacokinetic study, were mixed with 300 µL of acetonitrile containing the IS at 10 µg/mL for protein precipitation, and vortexed for 3 min. Then, 200 µL of dichloromethane were added, for liquid–liquid extraction of the bioactive compounds, and vortexed for 5 min. The mixture was centrifuged at 14,000 rpm for 10 min, and the extracted organic layers were placed in new tubes, until completely dry at room temperature. For quantitative analysis, samples were resuspended in 100 µL of methanol, transferred to sampling vials, and injected into the chromatographic system, described below.
A pharmacokinetic study was carried out in sixty mice, divided in six subgroups, according to sample collection times. An acute inflammation process by the intraperitoneal (i.p.) administration of LPS at 2 mg/kg was induced in half of the mice per group, while the other half received an i.p. injection of saline solution. Ten min after the damage was induced, the mice were administered with an oral dose of 10 mg/kg of the bioactive fraction dissolved in a 1% Tween-20 aqueous solution. Blood and tissue samples were obtained and processed at 0, 0.25, 0.75, 1.5, 2, 4, and 6 h post-dosing, as indicated in the “Samples collection” and “Plasma and tissue samples processing” sections.
Pharmacokinetic parameters of PE, SC, DF, HR, and PU in plasma were calculated by PKSolver software.

[3] = plasma, LPS-damaged ICR mice (LPS 2 mg/kg i.p.)

COc1cc2ccc(=O)oc2c(OC)c1OC [DF, dimethylfraxetin]
Stability Autosampler RE (%) ([1]; brain, nominal 0.3 µg/mL): -4.07%
Stability Freeze-Thaw RE (%) ([1]; brain, nominal 0.3 µg/mL): 0.03%
Stability Long-Term RE (%) ([1]; brain, nominal 0.3 µg/mL): -0.62%
Stability Autosampler RE (%) ([1]; brain, nominal 3.0 µg/mL): 3.73%
Stability Freeze-Thaw RE (%) ([1]; brain, nominal 3.0 µg/mL): -6.72%
Stability Long-Term RE (%) ([1]; brain, nominal 3.0 µg/mL): 0.46%
Stability Autosampler RE (%) ([1]; brain, nominal 30.0 µg/mL): 3.21%
Stability Freeze-Thaw RE (%) ([1]; brain, nominal 30.0 µg/mL): -0.35%
Stability Long-Term RE (%) ([1]; brain, nominal 30.0 µg/mL): -4.35%
Stability Autosampler RE (%) ([1]; kidney, nominal 0.3 µg/mL): 5.83%
Stability Freeze-Thaw RE (%) ([1]; kidney, nominal 0.3 µg/mL): -0.65%
Stability Long-Term RE (%) ([1]; kidney, nominal 0.3 µg/mL): 5.19%
Stability Autosampler RE (%) ([1]; kidney, nominal 3.0 µg/mL): 4.79%
Stability Freeze-Thaw RE (%) ([1]; kidney, nominal 3.0 µg/mL): 0.82%
Stability Long-Term RE (%) ([1]; kidney, nominal 3.0 µg/mL): 8.12%
Stability Autosampler RE (%) ([1]; kidney, nominal 30.0 µg/mL): 0.66%
Stability Freeze-Thaw RE (%) ([1]; kidney, nominal 30.0 µg/mL): 0.47%
Stability Long-Term RE (%) ([1]; kidney, nominal 30.0 µg/mL): 5.67%
Stability Autosampler RE (%) ([1]; plasma, nominal 0.3 µg/mL): 2.59%
Stability Freeze-Thaw RE (%) ([1]; plasma, nominal 0.3 µg/mL): -12.33%
Stability Long-Term RE (%) ([1]; plasma, nominal 0.3 µg/mL): -6.74%
Stability Autosampler RE (%) ([1]; plasma, nominal 3.0 µg/mL): -1.38%
Stability Freeze-Thaw RE (%) ([1]; plasma, nominal 3.0 µg/mL): 2.47%
Stability Long-Term RE (%) ([1]; plasma, nominal 3.0 µg/mL): -3.13%
Stability Autosampler RE (%) ([1]; plasma, nominal 30.0 µg/mL): 4.21%
Stability Freeze-Thaw RE (%) ([1]; plasma, nominal 30.0 µg/mL): 0.49%
Stability Long-Term RE (%) ([1]; plasma, nominal 30.0 µg/mL): -3.40%
Stability Autosampler RE (%) ([1]; spleen, nominal 0.3 µg/mL): 6.88%
Stability Freeze-Thaw RE (%) ([1]; spleen, nominal 0.3 µg/mL): -0.67%
Stability Long-Term RE (%) ([1]; spleen, nominal 0.3 µg/mL): 5.43%
Stability Autosampler RE (%) ([1]; spleen, nominal 3.0 µg/mL): -1.66%
Stability Freeze-Thaw RE (%) ([1]; spleen, nominal 3.0 µg/mL): 0.49%
Stability Long-Term RE (%) ([1]; spleen, nominal 3.0 µg/mL): 7.09%
Stability Autosampler RE (%) ([1]; spleen, nominal 30.0 µg/mL): 1.50%
Stability Freeze-Thaw RE (%) ([1]; spleen, nominal 30.0 µg/mL): -1.06%
Stability Long-Term RE (%) ([1]; spleen, nominal 30.0 µg/mL): 7.60%
amount of drug available in the plasma, LPS mice compared to healthy subjects [2]: three-fold higher
Cmax [2, 3]: 1820 ± 270 ng/mL
AUC(0-inf) ([2]; plasma, LPS-damaged ICR mice): 3610 ± 400 ng·h/mL
MRT ([2]; plasma, LPS-damaged ICR mice): 2.72 ± 0.3 h
Tmax ([2]; plasma, LPS-damaged ICR mice): 0.6 ± 0.24 h
half-life ([2]; plasma, LPS-damaged ICR mice): 1.5 ± 0.37 h
AUC(0-t) ([2]; plasma, LPS-damaged ICR mice): 3250 ± 310 ng·h/mL
AUC(0-inf) ([2]; plasma, healthy ICR mice): 1710 ± 190 ng·h/mL
MRT ([2]; plasma, healthy ICR mice): 2.35 ± 0.33 h
Tmax ([2]; plasma, healthy ICR mice): 1.2 ± 0.31 h
half-life ([2]; plasma, healthy ICR mice): 0.98 ± 0.27 h
Cmax ([2]; plasma, healthy ICR mice): 580 ± 20 ng/mL
AUC(0-t) ([2]; plasma, healthy ICR mice): 1640 ± 170 ng·h/mL
pharmacokinetic characteristics in words ([2]; LPS-treated mice, plasma, Figure 3b, 3c): fast distribution and subsequent elimination
Cl/F ([2]; plasma, LPS-damaged ICR mice): 28.81 ± 2.51 (mg/kg)/(μg/mL)/h
increase in the Cmax in the damaged animals versus healthy ([2]; plasma, LPS-damaged vs healthy mice): up to three times more
Cl/F ([2]; plasma, healthy ICR mice): 62.45 ± 9.38 (mg/kg)/(μg/mL)/h

COc1ccc2ccc(=O)oc2c1 [HR, herniarin]
Stability Autosampler RE (%) ([1]; brain, nominal 0.3 µg/mL): -3.47%
Stability Freeze-Thaw RE (%) ([1]; brain, nominal 0.3 µg/mL): -0.69%
Stability Long-Term RE (%) ([1]; brain, nominal 0.3 µg/mL): -0.21%
Stability Autosampler RE (%) ([1]; brain, nominal 3.0 µg/mL): 2.31%
Stability Freeze-Thaw RE (%) ([1]; brain, nominal 3.0 µg/mL): -5.14%
Stability Long-Term RE (%) ([1]; brain, nominal 3.0 µg/mL): -0.98%
Stability Autosampler RE (%) ([1]; brain, nominal 30.0 µg/mL): 3.86%
Stability Freeze-Thaw RE (%) ([1]; brain, nominal 30.0 µg/mL): -1.02%
Stability Long-Term RE (%) ([1]; brain, nominal 30.0 µg/mL): -4.72%
Stability Autosampler RE (%) ([1]; kidney, nominal 0.3 µg/mL): 8.17%
Stability Freeze-Thaw RE (%) ([1]; kidney, nominal 0.3 µg/mL): 2.03%
Stability Long-Term RE (%) ([1]; kidney, nominal 0.3 µg/mL): 5.12%
Stability Autosampler RE (%) ([1]; kidney, nominal 3.0 µg/mL): 2.81%
Stability Freeze-Thaw RE (%) ([1]; kidney, nominal 3.0 µg/mL): -0.62%
Stability Long-Term RE (%) ([1]; kidney, nominal 3.0 µg/mL): 3.06%
Stability Autosampler RE (%) ([1]; kidney, nominal 30.0 µg/mL): 1.35%
Stability Freeze-Thaw RE (%) ([1]; kidney, nominal 30.0 µg/mL): 2.25%
Stability Long-Term RE (%) ([1]; kidney, nominal 30.0 µg/mL): 3.32%
Stability Autosampler RE (%) ([1]; plasma, nominal 0.3 µg/mL): 8.34%
Stability Freeze-Thaw RE (%) ([1]; plasma, nominal 0.3 µg/mL): 0.67%
Stability Long-Term RE (%) ([1]; plasma, nominal 0.3 µg/mL): 9.39%
Stability Autosampler RE (%) ([1]; plasma, nominal 3.0 µg/mL): 12.83%
Stability Freeze-Thaw RE (%) ([1]; plasma, nominal 3.0 µg/mL): -7.90%
Stability Long-Term RE (%) ([1]; plasma, nominal 3.0 µg/mL): 3.99%
Stability Autosampler RE (%) ([1]; plasma, nominal 30.0 µg/mL): 14.32%
Stability Freeze-Thaw RE (%) ([1]; plasma, nominal 30.0 µg/mL): -5.47%
Stability Long-Term RE (%) ([1]; plasma, nominal 30.0 µg/mL): 3.55%
Stability Autosampler RE (%) ([1]; spleen, nominal 0.3 µg/mL): 5.46%
Stability Freeze-Thaw RE (%) ([1]; spleen, nominal 0.3 µg/mL): -0.63%
Stability Long-Term RE (%) ([1]; spleen, nominal 0.3 µg/mL): 0.22%
Stability Autosampler RE (%) ([1]; spleen, nominal 3.0 µg/mL): -0.16%
Stability Freeze-Thaw RE (%) ([1]; spleen, nominal 3.0 µg/mL): 4.87%
Stability Long-Term RE (%) ([1]; spleen, nominal 3.0 µg/mL): 7.44%
Stability Autosampler RE (%) ([1]; spleen, nominal 30.0 µg/mL): 1.18%
Stability Freeze-Thaw RE (%) ([1]; spleen, nominal 30.0 µg/mL): 0.49%
Stability Long-Term RE (%) ([1]; spleen, nominal 30.0 µg/mL): 2.92%
amount of drug available in the plasma, LPS mice compared to healthy subjects [2]: three-fold higher
Cmax [2, 3]: 1480 ± 190 ng/mL
AUC(0-inf) ([2]; plasma, LPS-damaged ICR mice): 3210 ± 380 ng·h/mL
MRT ([2]; plasma, LPS-damaged ICR mice): 2.77 ± 0.25 h
Tmax ([2]; plasma, LPS-damaged ICR mice): 0.25 h
half-life ([2]; plasma, LPS-damaged ICR mice): 1.49 ± 0.35 h
AUC(0-t) ([2]; plasma, LPS-damaged ICR mice): 2950 ± 280 ng·h/mL
AUC(0-inf) ([2]; plasma, healthy ICR mice): 1030 ± 140 ng·h/mL
MRT ([2]; plasma, healthy ICR mice): 2.77 ± 0.35 h
Tmax ([2]; plasma, healthy ICR mice): 0.95 ± 0.35 h
half-life ([2]; plasma, healthy ICR mice): 1.66 ± 0.46 h
Cmax ([2]; plasma, healthy ICR mice): 620 ± 340 ng/mL
AUC(0-t) ([2]; plasma, healthy ICR mice): 920 ± 120 ng·h/mL
Cl/F ([2]; plasma, LPS-damaged ICR mice): 32.50 ± 2.91 (mg/kg)/(μg/mL)/h
Cl/F ([2]; plasma, healthy ICR mice): 103.7 ± 13.0 (mg/kg)/(μg/mL)/h
